# Laboratory results taken from PubChem BioAssay (NCI).
#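 Briefly, cells in 96-well plates were exposed to five compound concentrations for 48 h, and endpoints were estimated by linear interpolation. At the GI50, growth is halved. TGI: concentration producing complete growth inhibition.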
# Key:
# Assay in all cases: NCI-60 cell line screen, 48 h
# [1] = system: 786-0 renal
# [2] = system: A498 renal
# [3] = system: A549 NSCLC
# [4] = system: ACHN renal
# [5] = system: BT-549 breast
# [6] = system: CAKI-1 renal
# [7] = system: CCRF-CEM leukemia
# [8] = system: COLO 205 colon
# [9] = system: DU-145 prostate
# [10] = system: EKVX NSCLC
# [11] = system: HCC-2998 colon
# [12] = system: HCT-116 colon
# [13] = system: HCT-15 colon
# [14] = system: HL-60(TB) leukemia
# [15] = system: HOP-62 NSCLC
# [16] = system: HOP-92 NSCLC
# [17] = system: HS 578T breast
# [18] = system: HT29 colon
# [19] = system: IGROV1 ovarian
# [20] = system: K-562 leukemia
# [21] = system: LOX IMVI melanoma
# [22] = system: M14 melanoma
# [23] = system: MALME-3M melanoma
# [24] = system: MCF7 breast
# [25] = system: MDA-MB-231 breast
# [26] = system: MDA-MB-435
# [27] = system: MOLT-4 leukemia
# [28] = system: NCI-H226 lung
# [29] = system: NCI-H23 lung
# [30] = system: NCI-H460 lung
# [31] = system: NCI-H522 lung
# [32] = system: NCI/ADR-RES ovarian
# [33] = system: OVCAR-3 ovarian
# [34] = system: OVCAR-4 ovarian
# [35] = system: OVCAR-5 ovarian
# [36] = system: OVCAR-8 ovarian
# [37] = system: PC-3 prostate
# [38] = system: RPMI-8226 leukemia
# [39] = system: RXF 393 renal
# [40] = system: SF-268 CNS
# [41] = system: SF-295 CNS
# [42] = system: SF-539 CNS
# [43] = system: SK-MEL-2 melanoma
# [44] = system: SK-MEL-28 melanoma
# [45] = system: SK-MEL-5 melanoma
# [46] = system: SK-OV-3 ovarian
# [47] = system: SN12C renal
# [48] = system: SNB-19 CNS
# [49] = system: SNB-75 CNS
# [50] = system: SR leukemia
# [51] = system: SW-620 colon
# [52] = system: TK-10 renal
# [53] = system: U251 CNS
# [54] = system: UACC-257 melanoma
# [55] = system: UACC-62 melanoma
# [56] = system: UO-31 renal
smiles,measurement,setting,value
COc1cc2c(cc1O)CC[C@@H]1[C@@H]2CC[C@]2(C)[C@@H](OCCCN(C)C)CC[C@@H]12,GI50,[1],90.5 nM
same,TGI,[1],201 nM
same,GI50,[2],278 nM
same,TGI,[2],901 nM
same,GI50,[3],165 nM
same,TGI,[3],650 nM
same,GI50,[4],164 nM
same,TGI,[4],527 nM
same,GI50,[5],116 nM
same,TGI,[5],394 nM
same,GI50,[6],271 nM
same,TGI,[6],904 nM
same,GI50,[7],178 nM
same,TGI,[7],556 nM
same,GI50,[8],268 nM
same,TGI,[8],1030 nM
same,GI50,[9],161 nM
same,TGI,[9],603 nM
same,GI50,[10],208 nM
same,TGI,[10],958 nM
same,GI50,[11],130 nM
same,TGI,[11],346 nM
same,GI50,[12],98.1 nM
same,TGI,[12],381 nM
same,GI50,[13],125 nM
same,TGI,[13],558 nM
same,GI50,[14],96.8 nM
same,TGI,[14],203 nM
same,GI50,[15],182 nM
same,TGI,[15],728 nM
same,GI50,[16],112 nM
same,TGI,[16],473 nM
same,GI50,[17],210 nM
same,TGI,[17],1190 nM
same,GI50,[18],96.9 nM
same,TGI,[18],233 nM
same,GI50,[19],523 nM
same,TGI,[19],1430 nM
same,GI50,[20],100 nM
same,TGI,[20],331 nM
same,GI50,[21],90.6 nM
same,TGI,[21],173 nM
same,GI50,[22],93.3 nM
same,TGI,[22],190 nM
same,GI50,[23],90.2 nM
same,TGI,[23],194 nM
same,GI50,[24],148 nM
same,TGI,[24],439 nM
same,GI50,[25],104 nM
same,TGI,[25],219 nM
same,GI50,[26],89.9 nM
same,TGI,[26],182 nM
same,GI50,[27],145 nM
same,TGI,[27],555 nM
same,GI50,[28],617 nM
same,TGI,[28],1570 nM
same,GI50,[29],119 nM
same,TGI,[29],552 nM
same,GI50,[30],163 nM
same,TGI,[30],550 nM
same,GI50,[31],99.9 nM
same,TGI,[31],248 nM
same,GI50,[32],133 nM
same,TGI,[32],440 nM
same,GI50,[33],155 nM
same,TGI,[33],543 nM
same,GI50,[34],180 nM
same,TGI,[34],871 nM
same,GI50,[35],296 nM
same,TGI,[35],1140 nM
same,GI50,[36],196 nM
same,TGI,[36],733 nM
same,GI50,[37],183 nM
same,TGI,[37],748 nM
same,GI50,[38],126 nM
same,TGI,[38],301 nM
same,GI50,[39],88.9 nM
same,TGI,[39],226 nM
same,GI50,[40],182 nM
same,TGI,[40],801 nM
same,GI50,[41],98 nM
same,TGI,[41],208 nM
same,GI50,[42],86.7 nM
same,TGI,[42],172 nM
same,GI50,[43],76.9 nM
same,TGI,[43],198 nM
same,GI50,[44],102 nM
same,TGI,[44],243 nM
same,GI50,[45],83.3 nM
same,TGI,[45],154 nM
same,GI50,[46],198 nM
same,TGI,[46],675 nM
same,GI50,[47],304 nM
same,TGI,[47],1080 nM
same,GI50,[48],303 nM
same,TGI,[48],1060 nM
same,GI50,[49],76.8 nM
same,TGI,[49],273 nM
same,GI50,[50],120 nM
same,TGI,[50],390 nM
same,GI50,[51],160 nM
same,TGI,[51],513 nM
same,GI50,[52],154 nM
same,TGI,[52],496 nM
same,GI50,[53],126 nM
same,TGI,[53],334 nM
same,GI50,[54],104 nM
same,TGI,[54],206 nM
same,GI50,[55],110 nM
same,TGI,[55],269 nM
same,GI50,[56],224 nM
same,TGI,[56],860 nM
